From ChEMBL document CHEMBL5046216, “Disrupting Tryptophan in the Central Hydrophobic Region Selectively Mitigates Immunomodulatory Activities of the Innate Defence Regulator Peptide IDR-1002” (J Med Chem, 2021) come the findings set out here.

Active and inactive are the calls of the source. No cut-off for these calls is given here.

The test system of test [1] is Mus musculus. As to the kind of experiment: Effect on MCP1 level in dust-mite-induced BALB/c mouse model of airway inflammation assessed as greater than 2 fold induction at 6 mg/kg, sc administered for 2 weeks and measured 24 hrs post-HDM challenge by MSD multiplex assay. In kind it is functional, organism-based.
For test [2], the system named is Mus musculus. As to the kind of experiment: Effect on IL-9 level in dust-mite-induced BALB/c mouse model of airway inflammation assessed as greater than 2 fold induction at 6 mg/kg, sc administered for 2 weeks and measured 24 hrs post-HDM challenge by MSD multiplex assay. In kind it is functional, organism-based.
The subject of test [3] is Mus musculus. The test can be described thus: Effect on IL-17F level in dust-mite-induced BALB/c mouse model of airway inflammation assessed as greater than 2 fold induction at 6 mg/kg, sc administered for 2 weeks and measured 24 hrs post-HDM challenge by MSD multiplex assay. In kind it is functional, organism-based.
In test [4] the test system is Mus musculus. The test can be described thus: Effect on IL-22 level in dust-mite-induced BALB/c mouse model of airway inflammation assessed as greater than 2 fold induction at 6 mg/kg, sc administered for 2 weeks and measured 24 hrs post-HDM challenge by MSD multiplex assay. It counts as functional, organism-based.
In test [5] the test system is Mus musculus. As to the kind of experiment: Effect on IL-12p70 level in dust-mite-induced BALB/c mouse model of airway inflammation assessed as greater than 2 fold induction at 6 mg/kg, sc administered for 2 weeks and measured 24 hrs post-HDM challenge by MSD multiplex assay. It counts as functional, organism-based.
For test [6], the system named is Mus musculus. The test can be described thus: Effect on IL-6 level in dust-mite-induced BALB/c mouse model of airway inflammation assessed as greater than 2 fold induction at 6 mg/kg, sc administered for 2 weeks and measured 24 hrs post-HDM challenge by MSD multiplex assay. In kind it is functional, organism-based.
Test [7] has as its system Mus musculus. The test can be described thus: Effect on IL-5 level in dust-mite-induced BALB/c mouse model of airway inflammation assessed as greater than 2 fold induction at 6 mg/kg, sc administered for 2 weeks and measured 24 hrs post-HDM challenge by MSD multiplex assay. In kind it is functional, organism-based.
Test [8] concerns Mus musculus. As to the kind of experiment: Effect on IL-4 level in dust-mite-induced BALB/c mouse model of airway inflammation assessed as greater than 2 fold induction at 6 mg/kg, sc administered for 2 weeks and measured 24 hrs post-HDM challenge by MSD multiplex assay. It counts as functional, organism-based.
Test [9] has as its system Mus musculus. As to the kind of experiment: Effect on IL-1beta level in dust-mite-induced BALB/c mouse model of airway inflammation assessed as greater than 2 fold induction at 6 mg/kg, sc administered for 2 weeks and measured 24 hrs post-HDM challenge by MSD multiplex assay. In kind it is functional, organism-based.
For another test, the system named is HBEC3-KT. As to the kind of experiment: Antiinflammatory activity in INFgamma-induced MCP1 expressed in human HBEC3-KT cells assessed as fold change measured after 24 hrs by ELISA relative to control. In kind it is functional. (An ELISA detects its analyte on a solid surface through an enzyme-linked reagent.)
Test [10] relates to Mus musculus. As to the kind of experiment: Antiinflammatory activity in house dust-mite-induced BALB/c mouse model of airway inflammation assessed as suppression of total neutrophil count in BALF at 6 mg/kg, sc administered for 2 weeks and measured 24 hrs post-HDM challenge by Wright-Giemsa staining based microscopy. In kind it is functional.
The subject of test [11] is Mus musculus. The test can be described thus: Antiinflammatory activity in house dust-mite-induced BALB/c mouse model of methacholine-induced airway hyperreactivity assessed as reduction in methacholine-induced newtonian resistance at 6 mg/kg , ip administered for 2 weeks after methacholine-stimulation at 12 mg/ml measured 24 hrs post-HDM challenge. It counts as functional, organism-based.

Test [12] relates to Mus musculus. The test can be described thus: Antiinflammatory activity in house dust-mite-induced BALB/c mouse model of methacholine-induced airway hyperreactivity assessed as reduction in methacholine-induced tissue elastance at 6 mg/kg , ip administered for 2 weeks after methacholine-stimulation at 12 mg/ml measured 24 hrs post-HDM challenge. It counts as functional, organism-based.

In test [13] the test system is Mus musculus. The test can be described thus: Effect on IL-15 level in dust-mite-induced BALB/c mouse model of airway inflammation assessed as greater than 2 fold induction at 6 mg/kg, sc administered for 2 weeks and measured 24 hrs post-HDM challenge by MSD multiplex assay. It counts as functional, organism-based.
Test [14] concerns Mus musculus. The test can be described thus: Effect on IL-17AF level in dust-mite-induced BALB/c mouse model of airway inflammation assessed as greater than 2 fold induction at 6 mg/kg, sc administered for 2 weeks and measured 24 hrs post-HDM challenge by MSD multiplex assay. In kind it is functional, organism-based.
For test [15], the system named is Mus musculus. As to the kind of experiment: Effect on MIP1alpha level in dust-mite-induced BALB/c mouse model of airway inflammation assessed as greater than 2 fold induction at 6 mg/kg, sc administered for 2 weeks and measured 24 hrs post-HDM challenge by MSD multiplex assay. In kind it is functional, organism-based.

Take H-VQRWLIVRRIRK-OH: the result with Mus musculus [1], with Mus musculus [2], in the test on Mus musculus [3], with Mus musculus [4], with Mus musculus [5] and in the test with Mus musculus [6] was inactive. In addition, the result in the test with Mus musculus [7], in the test with Mus musculus [8], with Mus musculus [9], in the test with Mus musculus [10], in the test with Mus musculus [13] and in the test on Mus musculus [14] was inactive. Also, in the test with Mus musculus [15], the outcome was inactive. Moreover, in the test on HBEC3-KT, the “fold change (FC)” value was “inactive”. Further, the result in the test with Mus musculus [11] and with Mus musculus [12] was Active.

Regarding H-VQRWLIVWRIRK-OH, the outcome in the test on Mus musculus [1], in the test on Mus musculus [2], with Mus musculus [3], in the test with Mus musculus [4], in the test with Mus musculus [5] and with Mus musculus [6] was inactive. Further, the result with Mus musculus [7], in the test with Mus musculus [8], in the test with Mus musculus [9], in the test with Mus musculus [13], in the test with Mus musculus [14] and in the test with Mus musculus [15] was inactive. Further, in the test with HBEC3-KT, the “fold change (FC)” value came out at 3.8. Also, the Activity in the test with Mus musculus [10] is recorded as 60%. For the same substance, the result in the test on Mus musculus [11] and with Mus musculus [12] was Active.
